The results in this text go back to patent US8962690B2, “Compositions of dibromomalonamide and their use as biocides” (priority 2009, dated 2015).

For assay [1], the system named is mixture of Pseudomonas aeruginosa ATCC 10145 and Staphylococcus aureus ATCC 6538. Nature of the assay: Kill Assay (minimum biocide concentration, MBC). Particulars: 2 h. The class given is cell-based. As to the method: Kill Assay. This assay is used as a preliminary evaluation of synergy between the actives. The procedure is as follows. A mineral salts solution (0.2203 g of CaCl2, 0.1847 g of MgSO4, and 0.2033 g of NaHCO3 in 1 L water, approximately pH 8) is inoculated with equal amounts (about 10^7CFU/ml) of a mixture of Pseudomonas aeruginosa ATCC 10145 and Staphylococcus aureus ATCC 6538. Aliquots of the cell suspension are then treated with 2,2-dibromomalonamide (“DBMAL”), a surface active biocide, and their combinations at various concentration levels. […] The MBC values are then used to calculate a synergy index (SI) values. Summaries of the kill assay results are presented in the individual Examples. In each table, MBC values for each biocide and the blends tested are presented. Likewise, the Synergy Index (“SI”) values for the combinations are listed. SI is calculated with the following equation: Synergy Index=Ca/CA+Mb/CB where • Ca: Concentration of biocide A required for complete bacterial kill when used in combination with biocide B • CA: Concentration of biocide A required for complete bacterial kill when used alone • Cb: Concentration of biocide B required for complete bacterial kill when used in combination with biocide A • CB: […] Antagonistic

The test system of assay [2] is mixture of Pseudomonas aeruginosa, Klebsiella pneumoniae, Staphylococcus aureus, and Bacillus subtilis. Nature of the assay: Growth Inhibition Assay (microtiter plate, OD580). The format is cell-based. As to conditions: for inhibition at 0.39 µg/mL / inhibition at 0.78 µg/mL / inhibition at 1.56 µg/mL / inhibition at 3.13 µg/mL / inhibition at 6.25 µg/mL / inhibition at 12.5 µg/mL / inhibition at 25 µg/mL: 24 h. The text has this: Regardless of the mechanism of action, the impact of a biocide (or combination of biocides) can be measured over time on the basis of an increase in the size of the community.
The assay measures the efficacy of one or more biocides at preventing growth of a consortium of bacteria in a dilute mineral salts medium. The medium contains (in mg/l) the following components: FeCl3.6H2O (1); CaCl2.2H2O (10); MgSO4.7H2O (22.5); (NH4)2SO4 (40); KH2PO4 (10); K2HPO4 (25.5); Yeast Extract (10); and glucose (100). After all components are added to deionized water, the pH of the medium is adjusted to 7.5. Following filter sterilization, aliquots are dispensed in 100 ul quantities to sterile microtiter plate wells. Dilutions of DBMAL and/or “Biocide B” are then added to the microtiter plate. After preparing the combinations of actives as illustrated below, each well is inoculated with 100 μl of a cell suspension containing ca. 1×10^6 cells per milliliter of a mixture of Pseudomonas aeruginosa, Klebsiella pneumoniae, Staphylococcus aureus, and Bacillus subtilis. The final total volume of medium in each well is 300 μl. Once prepared as described herein, the concentration of each active ranges from 25 ppm to 0.195 ppm as illustrated in Table 1. The resulting matrix allows testing of eight concentrations of each active and 64 combinations of actives in the ratios (of actives).
Controls (not shown) contain the medium with no biocide added. After preparing the combinations of actives as illustrated above, each well is inoculated with 100 μl of a cell suspension containing ca. 1×10^6 cells per milliliter of a mixture of Pseudomonas aeruginosa, Klebsiella pneumoniae, Staphylococcus aureus, and Bacillus subtilis. The final total volume of medium in each well is 300 μl.
Immediately after the microtiter plates are prepared, the optical density (OD) readings for each well is measured at 580 nm and the plates are then incubated at 37° C. for 24 hr. After the incubation period, the plates are gently agitated before OD580 values are collected. The OD580 values at T0 are subtracted from T24 values to determine the total amount of growth (or lack thereof) that occurs. These values are used to calculate the percent inhibition of growth caused by the presence of each biocide and each of the 64 combinations.
where • CDBMAL: Concentration of DBMAL required to inhibit ˜90% of bacterial growth when used alone • CB: Concentration of biocide (B) required to inhibit ˜90% of bacterial growth when used alone. • MDBMAL: Concentration of DBMAL required to inhibit ˜90% of bacterial growth when used in combination with biocide (B). • MB: Concentration of biocide (B) required to inhibit ˜90% of bacterial growth when used in combination with DBMAL The SI values are interpreted as follows: • SI<1: Synergistic • SI=1: Additive • SI>1: Antagonistic
In the Examples below, the amounts of biocides in the solution are measured in mg per liter of solution (mg/l). Since solution densities are approximately 1.00, the mg/l measurement corresponds to weight ppm. Both units may therefore be used interchangeably in the Examples.

[3] abbreviates: read-out: % Inhibition of growth by DDMAC.
[4] abbreviates: read-out: % Inhibition of growth by DGH.

Structures can show the parent of a compound that is named as a salt. Where two headings read alike, the source gives them in different places. Bounds are passed on as bounds.

As for `NC(=O)C(Br)(Br)C(N)=O` [DBMAL, 2,2-dibromomalonamide], in assay [1] (read-out: MBC, 1st biocide DBMAL), the MBC amounted to 66.7 µg/mL. Besides, the inhibition at 0.39 µg/mL in assay [2] (DBMAL alone 0.39 mg/l, 24 hr (Table 3), read-out: % Inhibition of growth by DBMAL) stood at 28%; in assay [2] (DBMAL alone 0.39 mg/l, 24 hr (Table 7), read-out: % Inhibition of growth by DBMAL), 19%. Besides, the inhibition at 0.78 µg/mL worked out at 34% in assay [2] (DBMAL alone 0.78 mg/l, 24 hr (Table 3), read-out: % Inhibition of growth by DBMAL); 3% in assay [2] (DBMAL alone 0.78 mg/l, 24 hr (Table 5), read-out: % Inhibition of growth by DBMAL); 14% in assay [2] (DBMAL alone 0.78 mg/l, 24 hr (Table 7), read-out: % Inhibition of growth by DBMAL). For the same compound, the inhibition at 1.56 µg/mL in assay [2] (DBMAL alone 1.56 mg/l, 24 hr (Table 3), read-out: % Inhibition of growth by DBMAL) amounted to 26%; in assay [2] (DBMAL alone 1.56 mg/l, 24 hr (Table 7), read-out: % Inhibition of growth by DBMAL), 8%. Moreover, the inhibition at 3.13 µg/mL in assay [2] (DBMAL alone 3.13 mg/l, 24 hr (Table 3), read-out: % Inhibition of growth by DBMAL) was found to be 1%; in assay [2] (DBMAL alone 3.13 mg/l, 24 hr (Table 5), read-out: % Inhibition of growth by DBMAL), 1%; in assay [2] (DBMAL alone 3.13 mg/l, 24 hr (Table 7), read-out: % Inhibition of growth by DBMAL), 10%. The inhibition at 6.25 µg/mL in assay [2] (DBMAL alone 6.25 mg/l, 24 hr (Table 5), read-out: % Inhibition of growth by DBMAL) worked out at 5%; in assay [2] (DBMAL alone 6.25 mg/l, 24 hr (Table 7), read-out: % Inhibition of growth by DBMAL) it was 16%; in assay [2] (DBMAL alone 6.25 mg/l, 24 hr (Table 9), read-out: % Inhibition of growth by DBMAL), 18%.

In the case of `CCCCCCCC[N+](C)(C)CCCCCCCC.[Cl-]` [DDAC, dioctyl dimethyl ammonium chloride], in assay [1] (read-out: MBC, 2nd biocide DDAC), the minimal bactericidal concentration (MBC) is above 150 µg/mL.

For the compound `CCCCCCCCCC[N+](C)(C)CCCCCCCCCC` [DDMAC, didecyldimethyl ammonium chloride], in assay [2] (setting [3]), the inhibition at 0.39 µg/mL was 12%, the inhibition at 0.78 µg/mL worked out at 23%, the inhibition at 1.56 µg/mL stood at 26% and the inhibition at 3.13 µg/mL turned out to be 46%. In assay [2] (setting [3]), the inhibition at 6.25 µg/mL stood at 100%, the inhibition at 12.5 µg/mL came out at 100% and the inhibition at 25 µg/mL amounted to 100%.

On to `CCCCCCCCCCCCNC(=N)N` [DGH, dodecylguanidine hydrochloride], for which, in assay [2] (setting [4]), the inhibition at 0.39 µg/mL worked out at 3%, the inhibition at 0.78 µg/mL was 0%, the inhibition at 1.56 µg/mL stood at 0% and the inhibition at 3.13 µg/mL amounted to 3%. Also, in assay [2] (setting [4]), the inhibition at 6.25 µg/mL is 52%, the inhibition at 12.5 µg/mL was 100% and the inhibition at 25 µg/mL came to 100%.

With “C12-C16 alkyl dimethyl benzyl ammonium chloride [ADBAC]”, the “% Inhibition of growth by ADBAC” value in assay [2] (ADBAC alone 0.78 mg/l, 24 hr) was 6%; in assay [2] (ADBAC alone 1.56 mg/l, 24 hr) it was 50%. Besides, the “90% inhibition of growth concentration (I90)” value in assay [2] (single active, 24 hr) was 3.13 mg/L.
